Measurements taken from paper PMC3382171 (PLoS ONE, 2012).

Tests used:
Experiment in all cases: biochemical
Parameters in all cases: University of Dundee kinase panel, percent inhibition of phosphorylation at 1 uM RAFi, ATP at Km
Settings in all cases: read-out: Dundee KSS %inh at 1 uM
AURB = target: T1, AURB (Homo sapiens, UniProt Q96GD4)
T1 construct: gene AURKB
Method: (§1) The METi and RAFi were screened against kinase panels (SelectScreen, Invitrogen; University of Dundee, Division of Signal Transduction Therapy, UK; Upstate Biotechnology/Millipore, Billerica, MA). In these selectivity assays the concentration of ATP was set to the Km value of ATP for each kinase tested to allow for a relative potency comparison between the various kinases. The compounds were tested at 1 µM final concentration. […] Supplementary file pone.0039653.s002.pdf: Figure S2 Kinase Selectivity Screen of RAFi. (A) Kinase selectivity screen (KSS) performed at University of Dundee (Division of Signal Transduction Therapy). Values in % inhibition of phosphorylation given 1 µM of RAFi compared to control. (B) KSS performed at Invitrogen (Selectscreen Service) compared to control. Values in % inhibition of phosphorylation given 1 µM of RAFi. (C) Cell based dose response kinase inhibition of indicated kinases by RAFi. (PDF) Click here for additional data file.

CHK1 = target: T2, CHK1 (Homo sapiens, UniProt O14757)
T2 construct: gene CHEK1
Method: as §1

EEF-2 kinase = target: T3, EEF-2 kinase (Homo sapiens, UniProt O00418)
T3 construct: gene EEF2K
Method: as §1

ERK7 = target: T4, ERK7 (Homo sapiens, UniProt Q8TD08)
T4 construct: gene MAPK15
Method: as §1

IKKb = target: T5, IKKb (Homo sapiens, UniProt O14920)
T5 construct: gene IKBKB
Method: as §1

JNK1a = target: T6, JNK1a (Homo sapiens, UniProt P45983)
T6 construct: gene MAPK8; isoform alpha
Method: as §1

MARK3 = MARK3 (Homo sapiens, UniProt P27448)
Method: as §1

MNK1 = target: T7, MNK1 (Homo sapiens, UniProt Q9BUB5)
T7 construct: gene MKNK1
Method: as §1

NEK2 = NEK2 (Homo sapiens, UniProt P51955)
Method: as §1

P70S6K = target: T8, P70S6K (Homo sapiens, UniProt P23443)
T8 construct: gene RPS6KB1
Method: as §1

PDK1 = target: T9, PDK1 (Homo sapiens, UniProt O15530)
T9 construct: gene PDPK1
Method: as §1

PIM1 = PIM1 (Homo sapiens, UniProt P11309)
Method: as §1

SRPK1 = SRPK1 (Homo sapiens, UniProt Q96SB4)
Method: as §1

chicken CSK = chicken CSK (Gallus gallus, UniProt P41239)
Method: as §1

mouse ERK2 = target: T10, mouse ERK2 (Mus musculus, UniProt P63085)
T10 construct: gene Mapk1
Method: as §1

p38d = target: T11, p38d (Homo sapiens, UniProt O15264)
T11 construct: gene MAPK13
Method: as §1

p38g = target: T12, p38g (Homo sapiens, UniProt P53778)
T12 construct: gene MAPK12
Method: as §1

rabbit MEK1 = target: T13, rabbit MEK1 (Oryctolagus cuniculus, UniProt P29678)
T13 construct: gene MAP2K1
Method: as §1

rat AMPKa2 = target: T14, rat AMPKa2 (Rattus norvegicus, UniProt Q09137)
T14 construct: gene Prkaa2
Method: as §1

rat ROCKII = target: T15, rat ROCKII (Rattus norvegicus, UniProt Q62868)
T15 construct: gene Rock2
Method: as §1

SRPK1, sequence (Q96SB4 whole entry): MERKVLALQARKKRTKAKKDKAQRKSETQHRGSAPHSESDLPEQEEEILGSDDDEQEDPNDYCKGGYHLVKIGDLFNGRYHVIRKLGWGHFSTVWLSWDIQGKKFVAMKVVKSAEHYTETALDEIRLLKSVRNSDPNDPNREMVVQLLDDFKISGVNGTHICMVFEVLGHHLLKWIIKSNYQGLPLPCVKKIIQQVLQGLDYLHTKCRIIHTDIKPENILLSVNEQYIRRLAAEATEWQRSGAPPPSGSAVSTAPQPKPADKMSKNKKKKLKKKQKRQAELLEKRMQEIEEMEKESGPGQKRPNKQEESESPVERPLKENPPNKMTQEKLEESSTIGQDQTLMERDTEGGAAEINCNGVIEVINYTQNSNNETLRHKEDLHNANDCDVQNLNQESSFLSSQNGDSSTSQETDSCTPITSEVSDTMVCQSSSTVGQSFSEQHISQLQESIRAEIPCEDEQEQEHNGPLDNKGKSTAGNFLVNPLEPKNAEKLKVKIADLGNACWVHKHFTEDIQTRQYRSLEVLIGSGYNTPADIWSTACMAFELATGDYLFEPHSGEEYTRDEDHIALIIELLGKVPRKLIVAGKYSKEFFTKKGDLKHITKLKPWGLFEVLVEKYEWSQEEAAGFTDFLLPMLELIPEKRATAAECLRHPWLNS
T2 sequence (O14757 whole entry): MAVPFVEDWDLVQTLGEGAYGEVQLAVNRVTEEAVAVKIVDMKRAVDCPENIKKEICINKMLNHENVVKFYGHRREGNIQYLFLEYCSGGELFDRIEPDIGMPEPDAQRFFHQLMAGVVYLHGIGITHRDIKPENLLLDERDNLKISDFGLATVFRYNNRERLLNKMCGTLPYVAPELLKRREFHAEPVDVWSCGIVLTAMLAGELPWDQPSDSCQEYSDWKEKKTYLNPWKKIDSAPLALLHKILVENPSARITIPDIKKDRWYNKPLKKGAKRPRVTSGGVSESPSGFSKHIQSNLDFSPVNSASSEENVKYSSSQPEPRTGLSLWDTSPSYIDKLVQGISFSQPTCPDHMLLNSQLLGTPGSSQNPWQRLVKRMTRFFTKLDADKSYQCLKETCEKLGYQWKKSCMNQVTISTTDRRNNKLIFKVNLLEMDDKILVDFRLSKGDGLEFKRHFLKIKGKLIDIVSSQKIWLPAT
T3 sequence (O00418 whole entry): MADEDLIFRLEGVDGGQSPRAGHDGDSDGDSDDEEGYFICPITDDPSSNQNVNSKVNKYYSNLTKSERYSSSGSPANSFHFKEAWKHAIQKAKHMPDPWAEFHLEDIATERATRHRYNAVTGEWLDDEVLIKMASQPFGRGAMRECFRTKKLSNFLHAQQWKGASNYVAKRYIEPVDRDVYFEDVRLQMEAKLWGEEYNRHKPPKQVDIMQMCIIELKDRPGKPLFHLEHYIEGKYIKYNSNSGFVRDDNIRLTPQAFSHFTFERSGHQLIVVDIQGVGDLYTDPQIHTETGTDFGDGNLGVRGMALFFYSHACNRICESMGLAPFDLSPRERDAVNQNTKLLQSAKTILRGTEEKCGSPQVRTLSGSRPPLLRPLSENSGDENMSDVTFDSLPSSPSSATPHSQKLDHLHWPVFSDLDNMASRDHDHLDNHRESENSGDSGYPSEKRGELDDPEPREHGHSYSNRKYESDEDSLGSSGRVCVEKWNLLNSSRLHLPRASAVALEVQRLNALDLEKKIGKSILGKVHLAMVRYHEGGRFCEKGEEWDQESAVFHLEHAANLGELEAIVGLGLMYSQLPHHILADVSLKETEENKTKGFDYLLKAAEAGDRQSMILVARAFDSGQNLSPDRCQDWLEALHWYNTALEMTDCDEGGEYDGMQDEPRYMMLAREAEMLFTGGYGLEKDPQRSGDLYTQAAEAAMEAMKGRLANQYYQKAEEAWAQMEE
T9 sequence (O15530 whole entry): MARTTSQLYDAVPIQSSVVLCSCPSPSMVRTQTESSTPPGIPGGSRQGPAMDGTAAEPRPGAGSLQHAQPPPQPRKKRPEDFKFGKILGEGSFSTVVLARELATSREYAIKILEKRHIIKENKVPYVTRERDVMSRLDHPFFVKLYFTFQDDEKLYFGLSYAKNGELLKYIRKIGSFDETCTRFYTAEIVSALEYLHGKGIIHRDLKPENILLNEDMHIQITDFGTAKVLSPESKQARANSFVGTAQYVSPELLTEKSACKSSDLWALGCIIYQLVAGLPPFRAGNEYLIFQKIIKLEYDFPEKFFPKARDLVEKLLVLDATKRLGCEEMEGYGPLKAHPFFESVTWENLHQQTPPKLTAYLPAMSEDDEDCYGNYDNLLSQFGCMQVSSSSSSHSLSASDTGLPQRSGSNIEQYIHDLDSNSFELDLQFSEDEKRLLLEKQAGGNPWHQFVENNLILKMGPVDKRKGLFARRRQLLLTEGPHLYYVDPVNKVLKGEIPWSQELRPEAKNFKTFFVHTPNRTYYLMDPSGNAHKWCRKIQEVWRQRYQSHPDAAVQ
T1 sequence (Q96GD4 whole entry): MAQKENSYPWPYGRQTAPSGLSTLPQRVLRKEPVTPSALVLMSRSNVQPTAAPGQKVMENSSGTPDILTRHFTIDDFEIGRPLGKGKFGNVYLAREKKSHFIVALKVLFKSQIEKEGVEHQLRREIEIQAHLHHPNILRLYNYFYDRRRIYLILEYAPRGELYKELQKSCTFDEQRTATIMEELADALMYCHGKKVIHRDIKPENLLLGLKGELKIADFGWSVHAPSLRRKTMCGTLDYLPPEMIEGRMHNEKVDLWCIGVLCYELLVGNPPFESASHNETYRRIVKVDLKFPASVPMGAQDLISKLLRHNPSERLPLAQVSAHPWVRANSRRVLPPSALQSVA
T7 sequence (Q9BUB5 whole entry): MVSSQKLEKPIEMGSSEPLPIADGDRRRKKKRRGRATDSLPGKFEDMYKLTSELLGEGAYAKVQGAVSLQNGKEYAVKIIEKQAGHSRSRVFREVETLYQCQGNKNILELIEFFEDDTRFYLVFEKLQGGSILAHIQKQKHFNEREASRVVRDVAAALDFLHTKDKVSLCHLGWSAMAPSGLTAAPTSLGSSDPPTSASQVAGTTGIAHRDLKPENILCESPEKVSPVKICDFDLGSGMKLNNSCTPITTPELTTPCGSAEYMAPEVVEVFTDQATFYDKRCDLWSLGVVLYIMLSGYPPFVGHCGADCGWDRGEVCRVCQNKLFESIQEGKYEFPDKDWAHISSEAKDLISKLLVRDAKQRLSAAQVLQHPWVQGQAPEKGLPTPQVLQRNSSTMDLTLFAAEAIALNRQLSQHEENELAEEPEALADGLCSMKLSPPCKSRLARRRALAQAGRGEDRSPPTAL
T15 sequence (Q62868 whole entry): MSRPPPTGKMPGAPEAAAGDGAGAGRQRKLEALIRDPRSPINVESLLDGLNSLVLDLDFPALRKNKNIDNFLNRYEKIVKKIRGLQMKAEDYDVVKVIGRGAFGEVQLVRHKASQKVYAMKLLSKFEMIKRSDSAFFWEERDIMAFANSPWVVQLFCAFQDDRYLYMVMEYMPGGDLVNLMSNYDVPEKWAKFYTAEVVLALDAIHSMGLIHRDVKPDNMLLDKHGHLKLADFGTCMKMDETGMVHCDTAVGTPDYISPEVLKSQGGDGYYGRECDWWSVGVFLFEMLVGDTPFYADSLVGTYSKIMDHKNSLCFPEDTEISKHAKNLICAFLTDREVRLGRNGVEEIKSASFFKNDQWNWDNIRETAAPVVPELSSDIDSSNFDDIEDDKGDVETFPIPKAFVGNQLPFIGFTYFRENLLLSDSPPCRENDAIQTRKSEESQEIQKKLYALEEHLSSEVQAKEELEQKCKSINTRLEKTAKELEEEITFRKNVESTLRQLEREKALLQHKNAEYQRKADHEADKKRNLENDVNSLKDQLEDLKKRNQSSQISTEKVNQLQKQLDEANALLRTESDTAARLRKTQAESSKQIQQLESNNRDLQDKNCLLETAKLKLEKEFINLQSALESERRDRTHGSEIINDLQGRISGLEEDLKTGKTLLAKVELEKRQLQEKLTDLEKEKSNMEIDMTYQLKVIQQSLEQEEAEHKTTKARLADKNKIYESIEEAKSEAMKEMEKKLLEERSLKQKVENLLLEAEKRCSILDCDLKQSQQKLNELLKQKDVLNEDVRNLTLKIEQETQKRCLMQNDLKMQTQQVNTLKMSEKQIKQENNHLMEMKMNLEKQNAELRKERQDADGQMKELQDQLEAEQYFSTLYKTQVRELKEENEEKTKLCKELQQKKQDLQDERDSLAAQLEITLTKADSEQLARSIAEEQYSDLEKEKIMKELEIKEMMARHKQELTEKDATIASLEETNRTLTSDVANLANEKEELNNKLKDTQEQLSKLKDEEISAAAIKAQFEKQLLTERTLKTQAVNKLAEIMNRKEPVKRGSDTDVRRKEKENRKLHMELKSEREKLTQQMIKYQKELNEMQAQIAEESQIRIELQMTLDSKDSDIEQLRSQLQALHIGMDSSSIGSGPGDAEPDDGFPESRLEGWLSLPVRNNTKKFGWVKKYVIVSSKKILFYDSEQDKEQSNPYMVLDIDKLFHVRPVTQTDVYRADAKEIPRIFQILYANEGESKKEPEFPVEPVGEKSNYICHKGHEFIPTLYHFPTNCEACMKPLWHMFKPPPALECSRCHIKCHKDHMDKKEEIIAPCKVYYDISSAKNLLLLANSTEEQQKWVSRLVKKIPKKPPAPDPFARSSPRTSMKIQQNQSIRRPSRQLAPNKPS
T6 sequence (P45983 whole entry, canonical isoform): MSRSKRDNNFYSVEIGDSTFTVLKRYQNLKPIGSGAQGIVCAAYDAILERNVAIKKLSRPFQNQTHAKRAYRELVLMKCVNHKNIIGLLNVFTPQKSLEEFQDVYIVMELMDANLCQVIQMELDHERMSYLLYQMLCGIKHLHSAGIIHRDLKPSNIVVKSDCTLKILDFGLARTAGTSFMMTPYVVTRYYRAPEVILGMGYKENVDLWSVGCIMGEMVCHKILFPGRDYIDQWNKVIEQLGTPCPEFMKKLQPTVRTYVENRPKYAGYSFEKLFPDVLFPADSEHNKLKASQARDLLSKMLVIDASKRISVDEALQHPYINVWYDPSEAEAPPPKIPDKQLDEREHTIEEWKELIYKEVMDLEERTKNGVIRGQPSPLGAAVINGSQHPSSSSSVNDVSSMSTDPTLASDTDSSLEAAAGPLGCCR

inhibition at 1 µM (AURB): 16%
inhibition at 1 µM (CHK1): 2%
inhibition at 1 µM (EEF-2 kinase): 0%
inhibition at 1 µM (IKKb): 4%
inhibition at 1 µM (JNK1a): 62%
inhibition at 1 µM (MARK3): 20%
inhibition at 1 µM (MNK1): 7%
inhibition at 1 µM (NEK2): 73%
inhibition at 1 µM (P70S6K): -5%
inhibition at 1 µM (PDK1): 11%
inhibition at 1 µM (PIM1): 4%
inhibition at 1 µM (SRPK1): 5%
inhibition at 1 µM (chicken CSK): 27%
inhibition at 1 µM (mouse ERK2): 48%
inhibition at 1 µM (p38d): 9%
inhibition at 1 µM (p38g): 4%
inhibition at 1 µM (rabbit MEK1): 34%
inhibition at 1 µM (rat AMPKa2): 15%
inhibition at 1 µM (rat ROCKII): 25%
SMILES: N#CCCNc1nccc(-c2cn(CC(F)F)nc2-c2cnc3[nH]ccc3c2)n1 [RAFi, PF-04880594]
inhibition at 1 µM (ERK7): 16%
